Assay results taken from the supplement of paper PMC9512659.

Columns and labels:
[1] = tested on: Mycobacterium tuberculosis Erdman (pMV306hsp+LuxG13); experiment: GRinf, normalised growth-rate inhibition at infinite dose (GR value (unitless, negative = killing)); higher = less potent
Method: (§1)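 DiaMOND pairwise dose responses of an equipotent two-drug mixture (1.5-fold, 10-dose series) against autoluminescent M. tuberculosis Erdman in 384-well plates. Growth inhibition was read by OD600 (luminescence for dormancy) in seven media at a constant and a terminal time point; metrics are means of at least biological duplicates. Einf and AUC25 higher = more potent; GRinf lower = more potent; log2FIC negative = synergy.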

[2] = tested on: Mycobacterium tuberculosis Erdman (pMV306hsp+LuxG13); experiment: Einf, effect of the drug pair at infinite dose (maximum growth inhibition) (fraction inhibition (0-1)); higher = more potent; extreme values may be limits of the assay
Method: as §1

[3] = tested on: Mycobacterium tuberculosis Erdman (pMV306hsp+LuxG13); experiment: log2 fractional inhibitory concentration at 50% inhibition (log2 FIC); higher = more antagonistic
Method: as §1

[4] = tested on: Mycobacterium tuberculosis Erdman (pMV306hsp+LuxG13); experiment: AUC25, normalised area under the dose-response curve up to IC25 (normalised AUC (unitless)); higher = more potent
Method: as §1

[5] = tested on: Mycobacterium tuberculosis Erdman (pMV306hsp+LuxG13); experiment: log2 fractional inhibitory concentration at 90% inhibition (log2 FIC); higher = more antagonistic
Method: as §1

CC(C)/N=c1\cc2n(-c3ccc(Cl)cc3)c3ccccc3nc-2cc1Nc1ccc(Cl)cc1 [clofazimine] + CC(=O)NC[C@H]1CN(c2ccc(N3CCSCC3)c(F)c2)C(=O)O1 [sutezolid]
Details | AUC25, [4] | Einf, [2] | GRinf, [1] | log2 fractional inhibitory concentration, [3] | log2 fractional inhibitory concentration, [5]
growth medium: acidic pH 5.7, glycerol, time point: constant time point | 0.101 | 0.875 | 0.0525 | 0.684 | –
growth medium: acidic pH 5.7, glycerol, time point: terminal time point | 0.108 | 0.981 | -0.188 | -0.139 | -0.457
growth medium: butyrate 5 mM, time point: constant time point | 0.0828 | 0.911 | 0.00728 | -1.05 | –
growth medium: butyrate 5 mM, time point: terminal time point | 0.0725 | 0.961 | -0.00637 | -1.03 | -1.04
growth medium: cholesterol 0.05 mM, time point: constant time point | 0.112 | 1 | -1 | -0.848 | -0.263
growth medium: cholesterol 0.05 mM, time point: terminal time point | 0.125 | 1 | -0.651 | -1.5 | -0.782
growth medium: cholesterol 0.2 mM (cholesterol-high), time point: constant time point | 0.1 | 0.983 | -0.741 | -0.164 | -0.0175
growth medium: cholesterol 0.2 mM (cholesterol-high), time point: terminal time point | 0.116 | 1 | -0.833 | -0.588 | -0.392
growth medium: standard 7H9 OADC glycerol, time point: constant = terminal time point (4.2 d) | 0.0934 | 0.967 | -0.00824 | -0.402 | -0.528
growth medium: valerate 0.1%, time point: constant time point | 0.118 | 0.949 | -0.364 | 0.279 | –
growth medium: valerate 0.1%, time point: terminal time point | 0.0261 | 0.967 | 0.184 | 0.564 | -1.6

growth medium: hypoxic dormancy (butyrate + nitrate), then recovery
Details | AUC25, [4] | Einf, [2] | GRinf, [1] | log2 fractional inhibitory concentration, [3] | log2 fractional inhibitory concentration, [5]
time point: constant time point | 0.0485 | 0.988 | 0.181 | -0.185 | -0.341
time point: terminal time point | 0.0291 | 0.974 | 0.351 | 0.178 | -0.881

CC(C)/N=c1\cc2n(-c3ccc(Cl)cc3)c3ccccc3nc-2cc1Nc1ccc(Cl)cc1 [clofazimine] + CC(C)=CCC/C(C)=C/CNCCNC1C2CC3CC(C2)CC1C3 [SQ109]
Details | AUC25, [4] | Einf, [2] | GRinf, [1] | log2 fractional inhibitory concentration, [3] | log2 fractional inhibitory concentration, [5]
growth medium: butyrate 5 mM, time point: constant time point | 0.0628 | 0.941 | -0.113 | -0.227 | -0.83
growth medium: butyrate 5 mM, time point: terminal time point | 0.0621 | 0.973 | -0.111 | -0.367 | -0.678
growth medium: cholesterol 0.05 mM, time point: constant time point | 0.0691 | 0.758 | -0.558 | -0.774 | –
growth medium: cholesterol 0.2 mM (cholesterol-high), time point: constant time point | 0.0566 | 0.997 | -0.966 | -0.041 | -0.582
growth medium: cholesterol 0.2 mM (cholesterol-high), time point: terminal time point | 0.0744 | 1 | -0.823 | 0.4 | -0.374
growth medium: standard 7H9 OADC glycerol, time point: constant = terminal time point (4.2 d) | 0.0939 | 0.937 | -0.0512 | -0.519 | –

growth medium: hypoxic dormancy (butyrate + nitrate), then recovery
Details | AUC25, [4] | Einf, [2] | GRinf, [1] | log2 fractional inhibitory concentration, [3] | log2 fractional inhibitory concentration, [5]
time point: constant time point | 0.0761 | 0.99 | -0.486 | -1.61 | -2.43
time point: terminal time point | 0.0554 | 0.962 | 0.147 | -1.78 | -1.63

CC[C@@H](CO)NCCN[C@@H](CC)CO [ethambutol] + CC(=O)NC[C@H]1CN(c2ccc(N3CCSCC3)c(F)c2)C(=O)O1 [sutezolid]
Details | AUC25, [4] | Einf, [2] | GRinf, [1] | log2 fractional inhibitory concentration, [3] | log2 fractional inhibitory concentration, [5]
growth medium: acidic pH 5.7, glycerol, time point: constant time point | 0.122 | 0.837 | -0.0739 | -0.476 | –
growth medium: acidic pH 5.7, glycerol, time point: terminal time point | 0.0981 | 0.989 | -0.214 | 0.638 | 0.0843
growth medium: butyrate 5 mM, time point: constant time point | 0.0681 | 0.911 | 0.0455 | 0.936 | –
growth medium: butyrate 5 mM, time point: terminal time point | 0.0502 | 0.954 | 0.0337 | 0.703 | -0.108
growth medium: cholesterol 0.05 mM, time point: constant time point | 0.121 | 1 | -1 | 0.779 | -0.482
growth medium: cholesterol 0.05 mM, time point: terminal time point | 0.104 | 1 | -0.945 | -0.083 | -1.28
growth medium: cholesterol 0.2 mM (cholesterol-high), time point: constant time point | 0.0903 | 1 | -1 | -0.151 | –
growth medium: cholesterol 0.2 mM (cholesterol-high), time point: terminal time point | 0.109 | 1 | -0.852 | -0.578 | -0.0598
growth medium: standard 7H9 OADC glycerol, time point: constant = terminal time point (4.2 d) | 0.0717 | 0.982 | -0.118 | 0.607 | 0.432
growth medium: valerate 0.1%, time point: constant time point | 0.132 | 0.931 | -1 | -0.351 | –
growth medium: valerate 0.1%, time point: terminal time point | 0.0852 | 0.975 | -0.02 | 0.139 | 0.287

growth medium: hypoxic dormancy (butyrate + nitrate), then recovery
Details | AUC25, [4] | Einf, [2] | GRinf, [1] | log2 fractional inhibitory concentration, [3] | log2 fractional inhibitory concentration, [5]
time point: constant time point | 0.0614 | 0.989 | -0.104 | 0.45 | –
time point: terminal time point | 0.0966 | 0.979 | -0.187 | 1.4 | 0.341
